These results are taken from PubChem BioAssay (NCI).

Some test systems named below: SK-MEL-2 melanoma; T-47D breast; TK-10 renal; SR leukemia; SF-295 CNS; EKVX NSCLC; DU-145 prostate; OVCAR-3 ovarian; ACHN renal; HL-60(TB) leukemia.
Common to all, as to assay: DTP human tumour cell line panel, 48 h

Structures are written as SMILES.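 Growth conditions: 96-well plates. Treatment: test compound, 48 hours, 5 concentrations. Analysis: linear interpolation between bracketing concentrations; unreached endpoints set to highest concentration. Abbreviation: GI50, concentration required for 50% inhibition of growth. At the TGI there is no net growth.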

Broadly, the GI50 is the concentration giving 50% growth inhibition. As usually defined, the TGI is the concentration giving total growth inhibition. Read a low TGI as more potent growth arrest. In the case of `Oc1ccccc1Nc1nc2ccccc2c2occc12`, the GI50 was 14.1 µM in the assay with SK-MEL-2 melanoma; 10.1 µM in the assay on T-47D breast; 1.9 µM with TK-10 renal; 14.8 µM with SR leukemia; 3.71 µM in the assay with SF-295 CNS; 11.3 µM in the assay with EKVX NSCLC. Moreover, the GI50 in the assay with DU-145 prostate is 9.66 µM; with OVCAR-3 ovarian, 2.48 µM; with ACHN renal, 3.9 µM. Further, the TGI in the assay with SK-MEL-2 melanoma was 31 µM; in the assay on T-47D breast, 24.1 µM; with TK-10 renal it was 6.65 µM; in the assay with SR leukemia, more than 100 µM; in the assay on SF-295 CNS, 16.1 µM; in the assay on EKVX NSCLC it was 26.2 µM. The TGI with DU-145 prostate was found to be 21.4 µM; in the assay with OVCAR-3 ovarian, 16.3 µM; in the assay with ACHN renal it was 17 µM.

For the molecule `O=C1Nc2ccccc2/C1=C/c1cn(C(=O)c2c(Cl)cccc2Cl)c2ccccc12`, the GI50 in the assay with T-47D breast is 4.13 µM; with TK-10 renal it was 10.4 µM; with SR leukemia, 2.25 µM; in the assay on SF-295 CNS, 2.24 µM; in the assay on EKVX NSCLC it was 2.83 µM; in the assay with HL-60(TB) leukemia it was 2.46 µM. The values for the GI50 with DU-145 prostate, in the assay with OVCAR-3 ovarian and in the assay on ACHN renal were 2.72 µM, 1.65 µM and 3.17 µM, respectively. Also, the TGI was 93 µM in the assay with T-47D breast; 56 µM in the assay with TK-10 renal; 8.13 µM in the assay on SR leukemia; 9.3 µM in the assay on SF-295 CNS; 16.3 µM in the assay on EKVX NSCLC; 11 µM in the assay on HL-60(TB) leukemia. In addition, the TGI in the assay with DU-145 prostate turned out to be 9.24 µM; in the assay with OVCAR-3 ovarian, 3.65 µM; in the assay on ACHN renal it was 21.7 µM.

`COC(=O)c1cc2c3ccccc3n3c(=O)c4cc5cc(OC)c(N(S(=O)(=O)c6ccc(C)cc6)S(=O)(=O)c6ccc(C)cc6)cc5nc4c(n1)c23`: the GI50 in the assay on T-47D breast was more than 100 µM; in the assay on TK-10 renal, 8.92 µM; with SR leukemia, 41.4 µM; with SF-295 CNS, 5.15 µM; with EKVX NSCLC, 39.2 µM; with HL-60(TB) leukemia it was 74.7 µM. Also, the GI50 in the assay on DU-145 prostate is 32 µM; in the assay on OVCAR-3 ovarian it was more than 100 µM; in the assay with ACHN renal it was 6.03 µM. Also, the TGI was more than 100 µM in the assay on T-47D breast; 23.6 µM with TK-10 renal; more than 100 µM with SR leukemia; 21.7 µM with SF-295 CNS; more than 100 µM in the assay on EKVX NSCLC; more than 100 µM in the assay on HL-60(TB) leukemia. Further, the TGI is more than 100 µM with DU-145 prostate, more than 100 µM with OVCAR-3 ovarian and 22.2 µM in the assay on ACHN renal.

As for `O=C(CC(O)c1ccncc1)c1ccccc1` (stereo unspecified), the GI50 in the assay with SK-MEL-2 melanoma was 21.2 µM; in the assay on T-47D breast, 25.7 µM; in the assay on TK-10 renal, 41.8 µM; in the assay with SR leukemia it was 18.9 µM; in the assay on SF-295 CNS, 27.7 µM; in the assay with HL-60(TB) leukemia it was 17.6 µM. For the same molecule, the GI50 in the assay on DU-145 prostate was 45.5 µM; in the assay with OVCAR-3 ovarian, 30.5 µM; in the assay with ACHN renal, 25.9 µM. The TGI with SK-MEL-2 melanoma is 55.3 µM; in the assay on T-47D breast, more than 100 µM; with TK-10 renal, more than 100 µM; in the assay on SR leukemia, 47.6 µM; with SF-295 CNS, more than 100 µM; in the assay with HL-60(TB) leukemia it was 59.6 µM. Moreover, the TGI in the assay with DU-145 prostate, in the assay on OVCAR-3 ovarian and in the assay on ACHN renal was more than 100 µM throughout.

For the molecule `O=C(CC/C(CC(=O)c1ccc(Cl)cc1)=N/O)Nc1ccc(Cl)c(Cl)c1`, the TGI in the assay on SK-MEL-2 melanoma, with TK-10 renal, in the assay on SR leukemia, with SF-295 CNS, in the assay with EKVX NSCLC and in the assay with HL-60(TB) leukemia was more than 100 µM throughout. The TGI in the assay on OVCAR-3 ovarian and in the assay on ACHN renal was more than 100 µM throughout.

Regarding `CCCCCCCCCCCCCCCCOC(=O)c1c(C)[nH]c(/C=C2\N=C(c3ccc[nH]3)C=C2OC)c1C`, the GI50 is 0.249 µM with SK-MEL-2 melanoma; 0.433 µM in the assay on T-47D breast; 0.759 µM in the assay with TK-10 renal; 1.54 µM in the assay on SR leukemia; 2.7 µM with SF-295 CNS; 0.151 µM in the assay on HL-60(TB) leukemia. The GI50 was 0.406 µM in the assay with DU-145 prostate, 1.67 µM with OVCAR-3 ovarian and 1.65 µM in the assay on ACHN renal. Moreover, the TGI was 1.34 µM with SK-MEL-2 melanoma; 12.8 µM with T-47D breast; 3.36 µM in the assay with TK-10 renal; more than 100 µM in the assay on SR leukemia; 11 µM with SF-295 CNS; more than 100 µM in the assay with HL-60(TB) leukemia. Further, the TGI is more than 56.5 µM in the assay with DU-145 prostate, 6.91 µM in the assay on OVCAR-3 ovarian and 14.9 µM with ACHN renal.

On to `COc1ccc(NC(=O)COC(=O)c2cccc3c(=O)c4ccccc4[nH]c23)cc1`, for which the concentration for total growth inhibition (TGI) in the assay with TK-10 renal is 42.1 µM; in the assay on SR leukemia, 28.9 µM; in the assay on SF-295 CNS it was 40.2 µM; in the assay on EKVX NSCLC it was 96.2 µM; with HL-60(TB) leukemia, 25.8 µM; with OVCAR-3 ovarian it was 43.8 µM. In the assay on ACHN renal, this molecule showed a TGI of 45.6 µM.

On to `O=C1/C(=C/c2ccc([N+](=O)[O-])o2)Oc2ccccc21`, for which the GI50 was 1.91 µM in the assay on SK-MEL-2 melanoma; 1.24 µM in the assay with T-47D breast; 1.59 µM in the assay on TK-10 renal; 0.219 µM with SR leukemia; 3.43 µM in the assay on SF-295 CNS; 1.33 µM in the assay with HL-60(TB) leukemia. The GI50 with DU-145 prostate was 1.91 µM; in the assay on OVCAR-3 ovarian, 1.23 µM; with ACHN renal, 0.895 µM. Also, the TGI was found to be 3.73 µM in the assay with SK-MEL-2 melanoma; 4.34 µM with T-47D breast; 3.02 µM in the assay on TK-10 renal; 1.13 µM in the assay with SR leukemia; 13.8 µM in the assay on SF-295 CNS; 3.89 µM with HL-60(TB) leukemia. Besides, the TGI was determined as 3.73 µM with DU-145 prostate, 2.62 µM with OVCAR-3 ovarian and 2.17 µM in the assay on ACHN renal.

As for `O=C1/C(=C/c2ccc(Cl)cc2)CN(Cc2cn(CCNc3ccnc4cc(Cl)ccc34)nn2)C/C1=C\c1ccc(Cl)cc1`, the GI50 in the assay with SK-MEL-2 melanoma was 1.88 µM; with T-47D breast, 0.946 µM; with TK-10 renal it was 0.483 µM; in the assay with SR leukemia it was 0.245 µM; in the assay with SF-295 CNS, 0.222 µM; with HL-60(TB) leukemia, 0.332 µM. The GI50 is 0.426 µM with DU-145 prostate, 0.311 µM with OVCAR-3 ovarian and 0.391 µM in the assay with ACHN renal. Besides, the TGI with SK-MEL-2 melanoma amounted to 3.4 µM; in the assay on T-47D breast, 3.62 µM; in the assay on TK-10 renal it was 1.6 µM; in the assay on SR leukemia, 0.815 µM; in the assay on SF-295 CNS, 0.541 µM; with HL-60(TB) leukemia, 1.1 µM. The TGI in the assay on DU-145 prostate is 1.38 µM; in the assay with OVCAR-3 ovarian, 0.915 µM; in the assay on ACHN renal it was 1.21 µM.
